Reference: ChEMBL document CHEMBL1201862, “PubChem BioAssay data set” (2004)
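Cells were grown in 96-well plates and exposed to each compound for 48 hours at five concentrations; endpoints were interpolated linearly between bracketing concentrations, or set to the highest concentration if not reached. Abbreviation: GI50, concentration required for 50% inhibition of growth.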 Activity calls are given as the source filed them. Cut-off read from the data, not from the text of the source: active = GI50 up to about 1.1 µM and inactive = higher.

Tests used:
Assay in all cases: NCI tumour cell line growth inhibition, 48 h
[1] = test system: MOLT-4
[2] = test system: SK-OV-3
[3] = test system: HOP-62
[4] = test system: HCC 2998
[5] = test system: DLD-1
[6] = test system: SK-MEL-28
[7] = test system: HCT-15
[8] = test system: XF498
[9] = test system: NCI-H460
[10] = test system: LXFL 529
[11] = test system: 786-0
[12] = test system: SF-539
[13] = test system: SF-268
[14] = test system: NCI-H226
[15] = test system: COLO 205
[16] = test system: ACHN
[17] = test system: SK-MEL-2
[18] = test system: Malme-3M
[19] = test system: SNB-19
[20] = test system: RXF 393
[21] = test system: DMS-273
[22] = test system: CCRF-CEM
[23] = test system: SF-295
[24] = test system: UACC-257
[25] = test system: A498
[26] = test system: U-251
[27] = test system: RPMI-8226
[28] = test system: HCT-116
[29] = test system: NCI-H522
[30] = test system: KM12
[31] = test system: OVCAR-3
[32] = test system: A549
[33] = test system: SN12C
[34] = test system: M14
[35] = test system: HL-60
[36] = test system: HOP-92
[37] = test system: NCI-H23
[38] = test system: UACC-62
[39] = test system: HOP-18
[40] = test system: TK-10
[41] = test system: SR
[42] = test system: OVCAR-4
[43] = test system: SNB-75
[44] = test system: UO-31
[45] = test system: OVCAR-8
[46] = test system: LOX IMVI
[47] = test system: SW-620
[48] = test system: HT-29
[49] = test system: KM-20L2
[50] = test system: IGROV-1
[51] = test system: K562
[52] = test system: M19-MEL
[53] = test system: EKVX
[54] = test system: DMS-114
[55] = test system: NCI/ADR-RES
[56] = test system: PC-3
[57] = test system: BT-549
[58] = test system: Hs-578T
[59] = test system: T47D
[60] = test system: CAKI-1
[61] = test system: MCF7
[62] = test system: OVCAR-5
[63] = test system: MDA-MB-231
[64] = test system: MDA-MB-435
[65] = test system: DU-145
[66] = test system: MDA-N
[67] = test system: SK-MEL-5

## CC(=O)c1cccc(NCn2nnc3ccccc32)c1
[1]
  GI50: > 100 µM (inactive)
[2]
  GI50: > 100 µM (inactive)
[3]
  GI50: > 100 µM (inactive)
[4]
  GI50: > 100 µM (inactive)
[5]
  GI50: > 100 µM (inactive)
[6]
  GI50: > 100 µM (inactive)
[7]
  GI50: > 100 µM
[8]
  GI50: > 100 µM (inactive)
[9]
  GI50: > 100 µM (inactive)
[10]
  GI50: > 100 µM (inactive)
[11]
  GI50: > 100 µM (inactive)
[12]
  GI50: > 100 µM (inactive)
[13]
  GI50: > 100 µM (inactive)
[14]
  GI50: > 100 µM (inactive)
[15]
  GI50: > 100 µM (inactive)
[16]
  GI50: > 100 µM (inactive)
[17]
  GI50: > 100 µM (inactive)
[18]
  GI50: > 100 µM (inactive)
[19]
  GI50: > 100 µM (inactive)
[20]
  GI50: > 100 µM (inactive)
[21]
  GI50: > 100 µM (inactive)
[22]
  GI50: > 100 µM (inactive)
[23]
  GI50: > 100 µM (inactive)
[24]
  GI50: > 100 µM (inactive)
[25]
  GI50: > 100 µM (inactive)
[26]
  GI50: > 100 µM (inactive)
[27]
  GI50: 96.8 µM (inactive)
[28]
  GI50: > 100 µM (inactive)
[29]
  GI50: > 100 µM (inactive)
[30]
  GI50: > 100 µM (inactive)
[31]
  GI50: > 100 µM (inactive)
[32]
  GI50: > 100 µM (inactive)
[33]
  GI50: > 100 µM (inactive)
[34]
  GI50: > 100 µM (inactive)
[35]
  GI50: 61 µM (inactive)
[36]
  GI50: > 100 µM (inactive)
[37]
  GI50: > 100 µM (inactive)
[38]
  GI50: > 100 µM (inactive)
[39]
  GI50: > 100 µM (inactive)
[40]
  GI50: > 100 µM (inactive)
[41]
  GI50: 79.4 µM (inactive)
[42]
  GI50: > 100 µM (inactive)
[43]
  GI50: > 100 µM (inactive)
[44]
  GI50: > 100 µM (inactive)
[45]
  GI50: > 100 µM (inactive)
[46]
  GI50: > 100 µM (inactive)
[47]
  GI50: > 100 µM (inactive)
[48]
  GI50: > 100 µM (inactive)
[49]
  GI50: > 100 µM (inactive)
[50]
  GI50: > 100 µM (inactive)
[51]
  GI50: > 100 µM (inactive)
[52]
  GI50: > 100 µM (inactive)
[53]
  GI50: > 100 µM (inactive)
[54]
  GI50: > 100 µM (inactive)

## CCOC(=O)C(N)CSC(=O)NC (stereo not given)
[1]
  GI50: 55.1 µM (inactive)
[2]
  GI50: 286 µM (inactive)
[55]
  GI50: 89.9 µM (inactive)
[3]
  GI50: 154 µM (inactive)
[4]
  GI50: 271 µM (inactive)
[5]
  GI50: 130 µM (inactive)
[6]
  GI50: 136 µM (inactive)
[7]
  GI50: 63 µM
[8]
  GI50: 104 µM (inactive)
[9]
  GI50: 92 µM (inactive)
[11]
  GI50: 73.6 µM (inactive)
[12]
  GI50: > 83.6 µM (inactive)
[13]
  GI50: 115 µM (inactive)
[14]
  GI50: 247 µM (inactive)
[15]
  GI50: 78.5 µM (inactive)
[56]
  GI50: 132 µM (inactive)
[16]
  GI50: 184 µM (inactive)
[17]
  GI50: 63.2 µM (inactive)
[18]
  GI50: 117 µM (inactive)
[19]
  GI50: 251 µM (inactive)
[20]
  GI50: 105 µM (inactive)
[21]
  GI50: 83.6 µM (inactive)
[22]
  GI50: 49.3 µM (inactive)
[57]
  GI50: 121 µM (inactive)
[23]
  GI50: 258 µM (inactive)
[58]
  GI50: 204 µM (inactive)
[24]
  GI50: 208 µM (inactive)
[25]
  GI50: 236 µM (inactive)
[26]
  GI50: 121 µM (inactive)
[27]
  GI50: 20.1 µM (inactive)
[28]
  GI50: > 89.7 µM (inactive)
[29]
  GI50: 102 µM (inactive)
[30]
  GI50: 175 µM (inactive)
[59]
  GI50: 133 µM (inactive)
[60]
  GI50: 104 µM (inactive)
[31]
  GI50: 96.6 µM (inactive)
[32]
  GI50: 327 µM (inactive)
[33]
  GI50: 71.6 µM (inactive)
[34]
  GI50: 67.9 µM (inactive)
[35]
  GI50: 74 µM (inactive)
[36]
  GI50: 98.4 µM (inactive)
[61]
  GI50: 93.5 µM (inactive)
[37]
  GI50: 112 µM (inactive)
[38]
  GI50: 81.8 µM (inactive)
[39]
  GI50: 357 µM (inactive)
[62]
  GI50: 350 µM (inactive)
[40]
  GI50: 247 µM (inactive)
[41]
  GI50: 45.1 µM (inactive)
[42]
  GI50: 219 µM (inactive)
[63]
  GI50: 99.1 µM (inactive)
[64]
  GI50: 45 µM (inactive)
[43]
  GI50: 243 µM (inactive)
[44]
  GI50: 259 µM (inactive)
[45]
  GI50: 97.7 µM (inactive)
[65]
  GI50: 268 µM (inactive)
[46]
  GI50: 40.4 µM (inactive)
[47]
  GI50: 80.4 µM (inactive)
[48]
  GI50: 78.7 µM (inactive)
[49]
  GI50: 171 µM (inactive)
[66]
  GI50: 39.8 µM (inactive)
[50]
  GI50: 155 µM (inactive)
[67]
  GI50: 116 µM (inactive)
[51]
  GI50: 45.3 µM (inactive)
[52]
  GI50: 64.6 µM (inactive)
[53]
  GI50: 269 µM (inactive)
[54]
  GI50: 51.3 µM (inactive)
